Laboratory results published in patent publication US9115201B2 (priority 2008, dated 2015).

Columns and labels:
Design in all cases: key: S, oseltamivir sensitive; R, oseltamivir resistant
NA of A/Udorn/72 = type: biochemical, influenza H3N2 A/Udorn/72
[1] = test system: NA of A/New Caledonia/20/99; type: biochemical, influenza H1N1 A/New Caledonia/20/99
NA of A/Vietnam/1203/04 = NA of A/Vietnam/1203/04 (Influenza A virus, UniProt Q6DPL2); type: biochemical, influenza H5N1 A/Vietnam/1203/04
[2] = test system: NA of A/Vietnam/HN/30408/05; type: biochemical, influenza H5N1 A/Vietnam/HN/30408/05
NA of A/Indonesia/05 = type: biochemical, influenza H5N1 A/Indonesia/05
[3] = test system: NA of A/Egypt-2/14724/NAMRU3/06; type: biochemical, influenza H5N1 A/Egypt-2/14724/NAMRU3/06
[4] = test system: NA of A/Egypt/14725/NAMRU3/06; type: biochemical, influenza H5N1 A/Egypt/14725/NAMRU3/06
NA of A/Hong Kong/156/97 = type: biochemical, influenza H5N1 A/Hong Kong/156/97
[5] = test system: NA of A/duck/Hong Kong/380.5/01; type: biochemical, influenza H5N1 A/duck/Hong Kong/380.5/01

Sequence of NA of A/Vietnam/1203/04 (Q6DPL2 whole entry, looked up): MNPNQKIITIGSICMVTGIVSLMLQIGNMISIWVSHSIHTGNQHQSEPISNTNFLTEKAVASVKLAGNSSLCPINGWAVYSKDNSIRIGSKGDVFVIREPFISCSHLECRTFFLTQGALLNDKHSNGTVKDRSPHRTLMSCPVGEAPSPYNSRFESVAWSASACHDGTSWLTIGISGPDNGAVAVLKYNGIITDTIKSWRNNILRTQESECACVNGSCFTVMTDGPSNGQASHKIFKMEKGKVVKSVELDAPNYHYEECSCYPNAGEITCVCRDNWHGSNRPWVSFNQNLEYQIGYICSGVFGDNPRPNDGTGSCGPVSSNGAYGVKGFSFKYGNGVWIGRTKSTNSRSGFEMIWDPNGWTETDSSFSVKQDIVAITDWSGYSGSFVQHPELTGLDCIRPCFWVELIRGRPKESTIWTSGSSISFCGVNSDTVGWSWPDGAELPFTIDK

## CCOC(=O)C1=C[C@@H](OC(CC)CC)[C@H](NC(C)=O)[C@@H](N)C1 [Oseltamivir]
NA of A/Udorn/72
  Oseltamivir sensitivity of the virus: S^§
[1]
  Oseltamivir sensitivity of the virus: S
NA of A/Vietnam/1203/04
  Oseltamivir sensitivity of the virus: S
[2]
  Oseltamivir sensitivity of the virus: R
NA of A/Indonesia/05
  Oseltamivir sensitivity of the virus: S
[3]
  Oseltamivir sensitivity of the virus: R
[4]
  Oseltamivir sensitivity of the virus: R
NA of A/Hong Kong/156/97
  Oseltamivir sensitivity of the virus: S
[5]
  Oseltamivir sensitivity of the virus: R
